This is an account of results in the supplement of paper PMC6723410.

Molecules are shown by their SMILES.

For this assay, the system named is GUMC-403. Put plainly: viability at highest tested concentration (max response) relative to DMSO (% of DMSO control); higher = less cytotoxic. The conditions noted are these: library / dose series: MIPE library, 11-point 1:3 dilution; top concentration 46.1 µM; 48 h. The method, boiled down:
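Each figure stands for viability at the highest tested concentration compared with vehicle control. It was measured by CellTiter-Glo luminescence on a ViewLux after 48 h of exposure to 23 nL of pinned compound, with vehicle wells taken as 100% and empty wells as 0%. The cells were patient-derived GUMC-403 papilloma cells grown by conditional reprogramming, plated at 700/well in 5 μL F + Y medium in 1536-well plates.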
Molecule `COC(=O)Nc1nc2cc(C(=O)c3ccccc3)ccc2[nH]1` came in with a viability of 88.2. The value for `O=C(Nc1cccc(Cl)c1)Nc1ncc(CCNc2ncnc3ccsc23)s1` was 116; that for `O=C(O)C(=O)Nc1cccc(-c2nnn[nH]2)c1` was 120. The result for `COc1cc([C@@H]2c3cc4c(cc3[C@@H](O[C@@H]3O[C@@H]5CO[C@@H](c6cccs6)O[C@H]5[C@H](O)[C@H]3O)[C@H]3COC(=O)[C@H]23)OCO4)cc(OC)c1O` reads 56.7; that for `OCCN1C[C@H](O)[C@@H](O)[C@H](O)[C@H]1CO`, 151. The result for `Cc1[nH]c(/C=C2\C(=O)Nc3ccccc32)c(C)c1CCC(=O)O` reads 98.9; that for `CC(=O)N[C@H]1[C@H](O[C@@H]2c3ccc(c(Cl)c3)Oc3cc4cc(c3O[C@@H]3O[C@H](CO)[C@@H](O)[C@H](O)[C@H]3NC(=O)CCCCCCCC(C)C)Oc3ccc(cc3Cl)C[C@H]3NC(=O)[C@H](N)c5ccc(O)c(c5)Oc5cc(O)cc(c5)[C@H](NC3=O)C(=O)N[C@H]4C(=O)N[C@H]3C(=O)N[C@@H]2C(=O)N[C@@H](C(=O)O)c2cc(O)cc(O[C@H]4O[C@H](CO)[C@@H](O)[C@H](O)[C@@H]4O)c2-c2cc3ccc2O)O[C@H](CO)[C@@H](O)[C@@H]1O`, 121. Consider `C[C@@H]1[C@H](O)[C@@H](C)C=CC=CCCC=CC=CC=CC=C[C@H](O[C@H]2O[C@@H](C)[C@H](O)[C@@H](N)[C@H]2O)CC2O[C@](O)(C[C@@H](O)[C@H](O)CC[C@@H](O)C[C@@H](O)C[C@@H](O)CC(=O)O[C@H]1C)C[C@H](O)[C@H]2C(=O)O`, for which the viability was found to be 115. Turning to `CCC(=O)NC[C@H](Cc1ccc(OCCc2nc(-c3ccccc3)oc2C)cc1)N/C(C)=C\C(=O)c1ccc(C(F)(F)F)cc1`, the viability came out at 109. The result for `C[C@H]1C[C@H]2[C@@H]3CCC4=CC(=O)C=C[C@]4(C)[C@H]3C(=O)C[C@]2(C)[C@@]1(O)C(=O)CO` reads 104; that for `CCc1cc(C(N)=S)ccn1`, 120. The value for `CC(C)n1cnc2c(NCCc3ccc(O)cc3)nc(-c3csc4ccccc34)nc21` was 112. The value for `CC[C@@H](C)[C@H](NC(=O)[C@H](CC1CCCCC1)NC(=O)c1ccno1)C(=O)N1CCC2(CCc3ccccc32)CC1` was 90.5. Consider `CCOC(=O)\C1=C\[C@]2(CC)CCCN3CCC4=C([C@H]23)[N]1C5=C4C=CC=C5`, for which the viability is 83.9. As for `C/C=C(/C(=C/C)c1ccc(O)cc1)c1ccc(O)cc1`, the viability is 89.2. The result for `O=C1Nc2ccc(Cl)cc2C(C#CC2CC2)(C(F)(F)F)O1` (stereo not given) reads 95.5.

In turn, `CCCCc1ccc2[nH]c(NC(=O)OC)nc2c1` came in with a viability of 112.

Molecule `CCC(=O)N1CCN(CC1)C2=C(C=C(C=C2)N3C(=O)\C=C/C4=C3C5=CC(=CC=C5N=C4)C6=CN=C7C=CC=CC7=C6)C(F)(F)F` came in with a viability of 73.8. The value for `CCOC(=O)C(C#N)C\1C2=CC(=CC=C2O\C(=C1C(=O)OCC)N)Br` (stereo not given) was 120; that for `Cc1cc(-c2nnc3n2CCCCC3)c(C)n1-c1ccccc1` was 103. The result for `O=C(NC1CCOCC1)c1ccc(-c2cc(-c3c[nH]nc3-c3ccccn3)ccn2)cc1` reads 159. Regarding `CNC1CCCN(c2c(F)cc3c(=O)c(C(=O)O)cn(C4CC4)c3c2OC)C1` (stereo not given), the viability is 121. In the case of `NC(=O)c1ccc(N(C(N)=O)c2c(F)cccc2F)nc1-c1ccc(F)cc1F`, the viability came out at 109. The result for `O=C(O)C1(Cc2cccc(Nc3nccs3)n2)CCC(Oc2cccc(Cl)c2F)CC1` (stereo not given) reads 115. `CO[C@H]1C[C@@H]2CC[C@@H](C)[C@@](O)(O2)C(=O)C(=O)N2CCCC[C@H]2C(=O)O[C@H]([C@H](C)C[C@@H]2CC[C@@H](OCCO)[C@H](OC)C2)CC(=O)[C@H](C)/C=C(/C)[C@@H](O)[C@@H](OC)C(=O)[C@H](C)C[C@H](C)\C=C/C=C\C=C/1C`: the viability is 84.8. The value for `CC(C)C(=O)Nc1ncc(-c2cc(C(F)F)nn2-c2c(Cl)cccc2Cl)s1` was 90.8. The value for `C[N]1C2=C(SC(=C2)[S+](C)[O-])C\3=C1C(=O)N(CC4=CC(=CC=C4)N)\N=C3` (stereo not given) was 106; that for `N=C(CCSCc1csc(N=C(N)N)n1)N[S+](N)(=O)[O-]` was 124; that for `NC(=O)c1nnn(Cc2cc(Cl)c(C(=O)c3ccc(Cl)cc3)c(Cl)c2)c1N` was 90.7. The result for `CC(C)c1nc(CN(C)C(=O)N[C@H](C(=O)N[C@@H](Cc2ccccc2)C[C@H](O)[C@H](Cc2ccccc2)NC(=O)OCc2cncs2)C(C)C)cs1` reads 99.7; that for `COC(=O)C/1=C(C)/N/C(=C(\C1C2=CC(=CC=C2)[N+]([O-])=O)C(=O)OCCCN3CCC(CC3)(C4=CC=CC=C4)C5=CC=CC=C5)C` (stereo not given), 128. The molecule `CC(C)(C)OC(=O)Nc1ccc(-c2cc(C(=O)NCCCCCCC(=O)NO)no2)cc1` returned a viability of 81.6. On to `C[C@]12CC[C@H]3[C@@H](CC(=C)\C4=C\C(=O)\C=C/[C@]34C)[C@@H]1CCC2=O`, for which the viability turned out to be 112. The molecule `COC[C@H](c1ccc(C(F)(F)F)cc1)N1CCN(C2(C)CCN(C(=O)c3c(C)ncnc3C)CC2)C[C@H]1C.O=C(O)/C=C\C(=O)O` yielded a viability of 57.9. The result for `O=[N+]([O-])c1ncc[nH]1` reads 82.9; that for `COc1ccc(Cn2ccc3ccc(C(=O)NO)cc32)cc1`, 108; that for `O=C([O-])Cc1ccccc1Nc1c(Cl)cccc1Cl`, 104. The value for `CN(C)CC[C@H](c1ccc(Cl)cc1)c1ccccn1` was 112; that for `Cc1cc(Cl)ccc1OCCCC(=O)NO` was 89.3; that for `COc1ccc(-c2oc3cc(OC)ccc3c2C(=O)c2ccc(C#N)cc2)cc1` was 142. As for `FC1=CC=C(C=C1)N2/C=C\C=C(C(=O)NC3=CC=C(OC4=C5C=C[NH]C5=NC=C4)C(=C3)F)/C2=O`, the viability stood at 98.8. Regarding `O=C(CC12CC3CC(CC(C3)C1)C2)Nc1cccc2nc(NCCNCCO)ccc12`, the viability is 69.8. For the molecule `O=C(/C=C/c1ccc(O)cc1)c1ccc(O)cc1O`, the viability worked out at 77. The molecule `COC(=O)[C@H](Cc1ccccc1)NC(=O)[C@@H](N)CC(=O)O` gave a viability of 102.

`O=C1NC(=O)/C(=C/c2ccc3c(c2)OC(F)(F)O3)S1`: the viability turned out to be 94. Turning to `CO/N=C(/C(=O)N[C@@H]1C(=O)N2C(C(=O)O)=C(CSC(=O)c3ccco3)CS[C@H]12)c1csc(N)n1`, the viability turned out to be 172. The result for `CC(C)(C)NC(=O)[C@H]1CC[C@H]2[C@@H]3CC[C@H]4NC(=O)\C=C/[C@]4(C)[C@H]3CC[C@]12C` reads 66.2; that for `Cl.Cl.Clc1ccc(Nc2nnc(Cc3ccncc3)c3ccccc23)cc1`, 101; that for `OC1=C(C=CC=C1)C2=CC=C(C=C2)C3=CSC4=C3C(=C(/C#N)C(=O)N4)/O`, 125. The value for `CC(CCc1ccc(O)cc1)NCCc1ccc(O)c(O)c1` (stereo not given) was 105. The result for `FC1=CC=C(SC/2=N/N3\C=N/C(=O)/C(=C3/C=C2)C4=C(Cl)C=CC=C4Cl)C(=C1)F` reads 108. `Cc1ccc(C(=O)Nc2cccc(C(F)(F)F)c2)cc1Nc1nc(-c2cccnc2)nc2c1cnn2C` yielded a viability of 87.4. The result for `NC1(Cc2ccc(Cl)cc2)CCN(c2ncnc3[nH]ccc23)CC1` reads 62.8; that for `OC[C@H]1O[C@@H](O[C@@H]2O\C=C(/[C@H]3C\C=C(CO)/[C@@H]23)C(O)=O)[C@H](O)[C@@H](O)[C@@H]1O`, 124. The result for `CCOC(=O)c1cncn1[C@H](C)c1ccccc1` reads 111; that for `CCn1c(-c2nonc2N)nc2c(C#CC(C)(C)O)ncc(OC[C@H]3CCCNC3)c21`, 100. `COc1cc2c(Nc3ccc(Cl)c(Cl)c3F)ncnc2cc1OCC1C[C@@H]2CN(C)C[C@@H]2C1` (stereo not given in full) yielded a viability of 12.5. In turn, `CC(=O)OCC(=O)[C@@]1(O)CC[C@H]2[C@@H]3CCC/4=C/C(=O)CC[C@]4(C)[C@H]3C(=O)C[C@]12C` registered a viability of 119. The result for `COc1cc(C)c(Sc2cnc(NC(=O)c3ccc(CNC(C)C(C)(C)C)cc3)s2)cc1C(=O)N1CCN(C(C)=O)CC1` (stereo not given) reads 71.7; that for `CC#CCn1c(N2CCC[C@@H](N)C2)nc2c1c(=O)n(Cc1nc(C)c3ccccc3n1)c(=O)n2C`, 111. The result for `COc1ccc2c(c1)c(CC(=O)OCC(=O)O)c(C)n2C(=O)c1ccc(Cl)cc1` reads 90.3. The value for `COC1=CC=C(C=C1)/C2=C(O)/C(=O)C3=C(O)C=C(O)C(=C3O2)CC=C(C)C` was 138; that for `Cc1coc2c1C(=O)C(=O)c1c-2ccc2c(C)cccc12` was 115; that for `CCC(=O)O[C@@]1([C@H](C)C[C@H]2[C@@H]3C[C@H](F)\C4=C\C(=O)\C=C/[C@]4(C)[C@@]3(F)[C@@H](O)C[C@]12C)C(=O)SCF` was 162. Regarding `Cc1cc(-c2ccc(CC(=O)Nc3ccc(-c4cccnc4)cc3)cc2)ccn1`, the viability was found to be 118. The value for `C1Cc2[nH]nc(-c3nn[nH]n3)c2C1` was 118; that for `CC(N)C12CC3CC(CC(C3)C1)C2` (stereo not given) was 104; that for `c1ccc(CNc2nc(NCc3ccccc3)c3ccccc3n2)cc1` was 51.8.

As for `NC(=O)c1cccnc1`, the viability turned out to be 136.

In turn, `CN(C)c1ccc(-c2nc3c(N4CCN(CC(=O)Nc5nccs5)CC4)c(Cl)cnc3[nH]2)cc1` returned a viability of 110.
